The target in assay [1] is T1, AHR (Homo sapiens, UniProt P35869).
T1 construct: U87 MG glioblastoma cells (ATCC #HTB-14) endogenously expressing AHR; endogenous in cells; host or cells: U87 MG glioblastoma cells (ATCC #HTB-14)
T1 sequence (P35869 11-848): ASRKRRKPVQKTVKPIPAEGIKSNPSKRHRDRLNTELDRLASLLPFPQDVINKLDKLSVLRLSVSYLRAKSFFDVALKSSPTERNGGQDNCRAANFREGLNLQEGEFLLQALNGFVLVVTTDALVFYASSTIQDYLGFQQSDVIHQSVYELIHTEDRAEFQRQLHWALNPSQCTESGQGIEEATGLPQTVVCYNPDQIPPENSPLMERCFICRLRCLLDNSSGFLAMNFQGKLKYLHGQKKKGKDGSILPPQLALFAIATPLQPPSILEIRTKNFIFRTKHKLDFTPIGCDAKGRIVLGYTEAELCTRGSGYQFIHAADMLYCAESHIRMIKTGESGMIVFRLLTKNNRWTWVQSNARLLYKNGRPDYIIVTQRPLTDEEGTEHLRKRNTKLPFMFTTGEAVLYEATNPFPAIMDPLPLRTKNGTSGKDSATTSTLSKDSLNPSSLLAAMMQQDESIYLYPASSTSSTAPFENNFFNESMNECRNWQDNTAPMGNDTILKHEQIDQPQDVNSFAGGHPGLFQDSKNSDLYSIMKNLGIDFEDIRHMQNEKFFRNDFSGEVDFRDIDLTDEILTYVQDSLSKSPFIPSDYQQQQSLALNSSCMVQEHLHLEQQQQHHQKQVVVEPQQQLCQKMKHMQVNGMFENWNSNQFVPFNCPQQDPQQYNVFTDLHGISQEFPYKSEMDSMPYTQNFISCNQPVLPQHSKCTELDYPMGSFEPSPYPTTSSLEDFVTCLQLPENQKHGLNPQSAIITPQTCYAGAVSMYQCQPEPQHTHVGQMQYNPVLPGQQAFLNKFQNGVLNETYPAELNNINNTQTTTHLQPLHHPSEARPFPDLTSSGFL
Briefly: In vitro assay 1: antagonism in human cell line (AHR transactivation, firefly luciferase reporter, kynurenic acid prestimulated). It is filed as cell-based. The note with it: AHR Antagonism Human IC50 [M]. Put shortly: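 U87 MG glioblastoma cells with endogenous AHR, stably carrying a DRE-driven firefly luciferase reporter and constitutive Renilla reporter, prestimulated with kynurenic acid before compound addition. Firefly and Renilla read by dual luciferase; Renilla flags toxicity; normalized to controls (150 μM kynurenic acid + 5 μM staurosporine as full inhibition); repeat values averaged or median.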

Assay [2] concerns the target T2, AHR (Mus musculus, UniProt P30561).
T2 sequence (P30561 1-848 P471L/N533S/M589L): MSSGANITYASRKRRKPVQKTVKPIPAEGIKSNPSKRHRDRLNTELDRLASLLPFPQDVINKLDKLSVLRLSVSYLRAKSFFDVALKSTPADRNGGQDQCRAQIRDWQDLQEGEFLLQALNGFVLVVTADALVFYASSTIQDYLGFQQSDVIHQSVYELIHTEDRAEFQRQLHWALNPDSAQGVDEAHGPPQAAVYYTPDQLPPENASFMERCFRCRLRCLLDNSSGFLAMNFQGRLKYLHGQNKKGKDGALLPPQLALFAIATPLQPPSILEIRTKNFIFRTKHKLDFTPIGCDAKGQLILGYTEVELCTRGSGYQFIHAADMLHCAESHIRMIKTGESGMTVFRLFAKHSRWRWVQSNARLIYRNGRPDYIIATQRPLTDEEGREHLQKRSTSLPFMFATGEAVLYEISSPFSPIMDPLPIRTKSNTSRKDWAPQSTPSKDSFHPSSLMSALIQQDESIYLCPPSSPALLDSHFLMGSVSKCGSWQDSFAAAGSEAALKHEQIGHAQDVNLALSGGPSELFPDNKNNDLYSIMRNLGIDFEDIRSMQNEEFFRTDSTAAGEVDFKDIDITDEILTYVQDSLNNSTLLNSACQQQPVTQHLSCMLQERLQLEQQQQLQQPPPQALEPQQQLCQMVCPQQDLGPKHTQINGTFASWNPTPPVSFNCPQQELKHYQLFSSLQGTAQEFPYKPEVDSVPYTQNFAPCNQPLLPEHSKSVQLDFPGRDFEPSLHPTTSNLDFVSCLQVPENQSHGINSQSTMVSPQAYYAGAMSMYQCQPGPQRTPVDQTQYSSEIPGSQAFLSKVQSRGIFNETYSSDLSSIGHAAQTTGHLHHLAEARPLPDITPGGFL
Briefly: In vitro assay 3: antagonism in mouse cell line (AHR transactivation, firefly luciferase reporter, kynurenic acid prestimulated). It is filed as cell-based. The note with it: 200 μM kynurenic acid, 20 hours, read-out: AHR Antagonism Mouse IC50. Put shortly: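 Mouse cells stably carrying a DRE-driven, AHR-inducible firefly luciferase reporter were prestimulated with the endogenous agonist kynurenic acid before compound addition. Luciferase activity was measured by luminescence and normalized to positive and negative controls, with cells lacking kynurenic acid serving as full-inhibition control. Repeat tests are reported as mean or median.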

Setting [3] is: Hepa 1c1c7 cells, firefly luciferase reporter.

Our source for the IC50 values is patent US20230113037A1 (Bayer Aktiengesellschaft, priority 2019, published 2023).

Where two headings read alike, the source gives them in different places.

As to `Cc1ccc2nc(N[C@@H]3CCCCNC3=O)n3nc(-c4cnn(C)c4)nc3c2c1C(F)F` [Example 404, (3R)-3-{[10-(difluoromethyl)-9-methyl-2-(1-methyl-1H-pyrazol-4-yl)[1,2,4]triazolo[1,5-c]quinazolin-5-yl]amino}azepan-2-one], the concentration for half-maximal inhibition (IC50) against AHR [1] was 3.39e-06 M; on AHR [2] (mouse Hepa 1c1c7 cells), 2760 nM.
Turning to `CC[C@@H](Nc1nc2ccccc2c2nc(-c3cccc(S(C)(=O)=O)c3)nn12)C(N)=O` [Example 378, (2R)-2-({2-[3-(methanesulfonyl)phenyl][1,2,4]triazolo[1,5-c]quinazolin-5-yl}amino)butanamide], the results for the IC50 on AHR [1] and at AHR [2] (mouse Hepa 1c1c7 cells) were 6.25e-07 M and 171 nM, respectively.
For the compound `CC(C)S(=O)(=O)c1cccc2c1nc(N[C@@H]1CNCCNC1=O)n1nc(-c3cnn(C)c3)nc21` [Example 943, (6R)-6-{[2-(1-methyl-1H-pyrazol-4-yl)-7-(propane-2-sulfonyl)[1,2,4]triazolo[1,5-c]quinazolin-5-yl]amino}-1,4-diazepan-5-one], the IC50 at AHR [1] (firefly luciferase reporter) came out at 9.47e-07 M; at AHR [2] (setting [3]), 2790 nM.
Regarding `COc1cccc(-c2nc3c4ccccc4nc(NC4CCCNC4=O)n3n2)c1` (single isomer, unassigned) [Example 118, 3-{[2-(3-methoxyphenyl)[1,2,4]triazolo[1,5-c]quinazolin-5-yl]amino}piperidin-2-one], the IC50 against AHR [1] amounted to 6.43e-08 M; on AHR [2] (mouse Hepa 1c1c7 cells), 40.2 nM.
For the compound `O=C1NCCNC[C@H]1Nc1nc2c(C(F)(F)F)cccc2c2nc(-c3ccc(Cl)cc3)nn12` [Example 947, (6R)-6-{[2-(4-chlorophenyl)-7-(trifluoromethyl)[1,2,4]triazolo[1,5-c]quinazolin-5-yl]amino}-1,4-diazepan-5-one], the IC50 on AHR [1] (firefly luciferase reporter) was 5.91e-10 M; on AHR [2] (setting [3]), 0.324 nM.
Take `CCNC(=O)C(CC)Nc1nc2ccccc2c2nc(-c3ccccc3OC(F)(F)F)nn12` (single isomer, unassigned) [Example 663, N-ethyl-2-({2-[2-(trifluoromethoxy)phenyl][1,2,4]triazolo[1,5-c]quinazolin-5-yl}amino)butanamide]: the half-inhibitory concentration (IC50) is greater than 2e-05 M on AHR [1] and 317 nM on AHR [2] (mouse Hepa 1c1c7 cells).
With `COc1ccc(-c2nc3c4cccc(Br)c4nc(N[C@H](C)C(=O)N4CC5(CN(C)C5)C4)n3n2)cc1` [Example 918, (2R)-2-{[7-bromo-2-(4-methoxyphenyl)[1,2,4]triazolo[1,5-c]quinazolin-5-yl]amino}-1-(6-methyl-2,6-diazaspiro[3.3]heptan-2-yl)propan-1-one], the IC50 came out at 3.07e-08 M at AHR [1] (firefly luciferase reporter) and 31.9 nM on AHR [2] (setting [3]).
As for `Cc1nn(C)cc1-c1nc2c3ccccc3nc(N[C@@H]3CCCCNC3=O)n2n1` [Example 605, (3R)-3-{[2-(1,3-dimethyl-1H-pyrazol-4-yl)[1,2,4]triazolo[1,5-c]quinazolin-5-yl]amino}azepan-2-one], the half-maximal inhibitory concentration (IC50) against AHR [1] was 1.59e-09 M; on AHR [2] (mouse Hepa 1c1c7 cells), 1.05 nM.
Take `COc1ccc(-c2nc3c4cccc(SC(C)C)c4nc(N[C@@H]4CCCCNC4=O)n3n2)cc1` [Example 767, (3R)-3-({2-(4-methoxyphenyl)-7-[(propan-2-yl)sulfanyl][1,2,4]triazolo[1,5-c]quinazolin-5-yl}amino)azepan-2-one]: the IC50 amounted to 2.69e-08 M against AHR [1] and 47.6 nM at AHR [2] (mouse Hepa 1c1c7 cells).
The like results for `CCCCNC(=O)CNc1nc2ccccc2c2nc(-c3ccc(S(C)(=O)=O)cc3)nn12` [Example 438, N-butyl-N^2-{2-[4-(methanesulfonyl)phenyl][1,2,4]triazolo[1,5-c]quinazolin-5-yl}glycinamide] were, in that order, 2.9e-07 M and 130 nM.
`C[C@@H](Nc1nc2c(Br)cccc2c2nc(-c3cnn(C)c3)nn12)C(=O)N1CC2(CN(C)C2)C1` [Example 919, (2R)-2-{[7-bromo-2-(1-methyl-1H-pyrazol-4-yl)[1,2,4]triazolo[1,5-c]quinazolin-5-yl]amino}-1-(6-methyl-2,6-diazaspiro[3.3]heptan-2-yl)propan-1-one]: the IC50 on AHR [1] (firefly luciferase reporter) was found to be 1.18e-06 M; at AHR [2] (setting [3]), 613 nM.
Take `Cn1nccc1-c1nc2c3cccc(C(F)(F)F)c3nc(N[C@@H]3CNCCNC3=O)n2n1` [Example 946, (6R)-6-{[2-(1-methyl-1H-pyrazol-5-yl)-7-(trifluoromethyl)[1,2,4]triazolo[1,5-c]quinazolin-5-yl]amino}-1,4-diazepan-5-one]: the IC50 was 8.75e-09 M on AHR [1] (firefly luciferase reporter) and 2.16 nM on AHR [2] (setting [3]).
With `N#Cc1ccc(-c2nc3c4ccccc4nc(N[C@H]4CCCCNC4=O)n3n2)cc1` [Example 437, 4-(5-{[(3S)-2-oxoazepan-3-yl]amino}[1,2,4]triazolo[1,5-c]quinazolin-2-yl)benzonitrile], the half-inhibitory concentration (IC50) amounted to 3.65e-08 M against AHR [1] and 7.87 nM at AHR [2] (mouse Hepa 1c1c7 cells).
On the same counts, the results for `CCn1cc(-c2nc3c4cccc(C#N)c4nc(N[C@@H]4CCCCNC4=O)n3n2)c(C)n1` [Example 763, 2-(1-ethyl-3-methyl-1H-pyrazol-4-yl)-5-{[(3R)-2-oxoazepan-3-yl]amino}[1,2,4]triazolo[1,5-c]quinazoline-7-carbonitrile] are 1.41e-09 M and 3.96 nM.
For the compound `CSc1cccc2c1nc(N[C@@H]1CCCCNC1=O)n1nc(-c3cnn(C(C)C)c3)nc21` [Example 771, (3R)-3-({7-(methylsulfanyl)-2-[1-(propan-2-yl)-1H-pyrazol-4-yl][1,2,4]triazolo[1,5-c]quinazolin-5-yl}amino)azepan-2-one], the IC50 was 1.02e-08 M at AHR [1] and 104 nM on AHR [2] (mouse Hepa 1c1c7 cells).
The like results for `O=C1NCCCC[C@H]1Nc1nc2ccccc2c2nc(-c3cc[nH]n3)nn12` [Example 62, (3R)-3-{[2-(1H-pyrazol-3-yl)[1,2,4]triazolo[1,5-c]quinazolin-5-yl]amino}azepan-2-one] were, in that order, 1.11e-07 M and 154 nM.
As for `CC[C@@H](Nc1nc2ccccc2c2nc(-c3cccc(C#N)c3)nn12)C(N)=O` [Example 382, (2R)-2-{[2-(3-cyanophenyl)[1,2,4]triazolo[1,5-c]quinazolin-5-yl]amino}butanamide], the results for the IC50 against AHR [1] and at AHR [2] (mouse Hepa 1c1c7 cells) were 7.64e-09 M and 1.25 nM, respectively.
The like results for `Cc1c(-c2nc3c4cccc(C(F)(F)F)c4nc(N[C@@H]4CCCCNC4=O)n3n2)cnn1C` [Example 734, (3R)-3-{[2-(1,5-dimethyl-1H-pyrazol-4-yl)-7-(trifluoromethyl)[1,2,4]triazolo[1,5-c]quinazolin-5-yl]amino}azepan-2-one] were, in that order, 3.94e-09 M and 8.92 nM.
In the case of `O=C1NCCCC1Nc1nc2ccccc2c2nc(-c3cccc(F)c3)nn12` (stereo not shown) [Example 8, 3-{[2-(3-fluorophenyl)[1,2,4]triazolo[1,5-c]quinazolin-5-yl]amino}piperidin-2-one], the IC50 at AHR [1] was 5.44e-08 M; at AHR [2] (mouse Hepa 1c1c7 cells), 105 nM.
As to `O=C1NCCNC[C@H]1Nc1nc2ccccc2c2nc(-c3ccco3)nn12` [Example 258, (6R)-6-{[2-(furan-2-yl)[1,2,4]triazolo[1,5-c]quinazolin-5-yl]amino}-1,4-diazepan-5-one], the IC50 against AHR [1] was determined as 7.15e-07 M; on AHR [2] (mouse Hepa 1c1c7 cells), 398 nM.
